In patent US20120321621A1, “INHIBITION OF FcyR-MEDIATED PHAGOCYTOSIS WITH REDUCED IMMUNOGLOBULIN PREPARATIONS” (priority 2008, published 2012):

Columns and labels:
[1] = system: FcγR-mediated phagocytosis of anti-D-sensitized R2R2 RBCs by monocyte-macrophages; experiment: Monocyte monolayer assay (MMA): inhibition of phagocytosis of anti-D-sensitized R2R2 RBCs; format: cell-based, human; details: for inhibition of phagocytosis by chemical alone after dialysis: after extensive dialysis
Source text: Residual and phagocytosed RBCs were distinguished by relative differences in refracted light under phase-contrast microscopy.

[2] = system: FcγR-mediated phagocytosis of anti-D-sensitized R2R2 RBCs by monocyte-macrophages; details: 10^−4M, MMA (Rampersad et al.); cited from earlier work

| SMILES | inhibition of phagocytosis by chemical alone after dialysis [1] | inhibition of phagocytosis by undialyzed chemical alone ([1]; undialyzed, 10^−5 or 10^−3 mol per L) [%] | inhibition of FcγR-mediated phagocytosis by chemical alone [2] | inhibition at 10000 µM ([1]; Homo sapiens, Monocyte, free, undialyzed, 10^−2M, read-out: inhibition of phagocytosis by free chemical) [%] |
| --- | --- | --- | --- | --- |
| C[CH2][Hg][S]c1ccccc1C(=O)[O-].[Na+] [thimerosal] | no longer inhibits phagocytosis | 100 | – | – |
| Cc1ccc(S(=O)(=O)CS)cc1 [p-toluenesulfonylmethyl mercaptan] | not able to inhibit phagocytosis | – | approximately 70% | – |
| O[C@H](CS)[C@H](O)CS (racemic) [DTT, Dithiothreitol] | no inhibition | – | – | ~30 |
